The record followed here is US9926281B2 (priority 2014, dated 2018).

The target in one experiment is rnADAMTS-5 (1-564-6H) (Rattus norvegicus, UniProt Q6TY19). To be noted: read-out: Rat ADAMTS-5 potency IC50.
Experiment [1] concerns the target T1, human ADAMTS-5 (Homo sapiens (Human), UniProt Q9UNA0). To be noted: read-out: hADAMTS-5 potency IC50.
Protocol: Finally, the fluorescence is read on the Envision (Perkin Elmer) after an incubation of 90 min at 37° C.
For the next experiment, the target named is human TACE (Homo sapiens (Human), UniProt P78536). To be noted: read-out: TACE potency IC50.
The target in experiment [2] is T2, human MMP13 (Homo sapiens (Human), UniProt P45452). The conditions noted are these: read-out: hMMP-13 potency IC50.
Protocol: Human MMP13 is preactivated by incubated the enzyme in the same buffer complemented with 1 mM freshly prepared p-Aminophenylmercuric acetate (AMPA) for 1 hour at 37° C.
The next experiment addresses human MMP14 (Homo sapiens (Human), UniProt P50281). To be noted: read-out: hMMP-14 potency IC50.
The target of experiment [3] is T2, human MMP13. The conditions noted are these: read-out: hMMP-13 potency IC50. The source holds these as a separate data set.
Protocol: The reaction is initiated by adding to the assay plate 520 MMP-fret substrate XV (10 μL, 4 μM) in the same buffer.
In experiment [4] the target is T1, human ADAMTS-5. To be noted: read-out: hADAMTS-5 potency IC50. This is another data set of the same source.

SMILES strings stand for the structures. Where two headings read alike, the source gives them in different places. Where only a bound is given, the exact number is not on record here.

Chain of human TACE (P78536 whole entry, looked up, change not shown): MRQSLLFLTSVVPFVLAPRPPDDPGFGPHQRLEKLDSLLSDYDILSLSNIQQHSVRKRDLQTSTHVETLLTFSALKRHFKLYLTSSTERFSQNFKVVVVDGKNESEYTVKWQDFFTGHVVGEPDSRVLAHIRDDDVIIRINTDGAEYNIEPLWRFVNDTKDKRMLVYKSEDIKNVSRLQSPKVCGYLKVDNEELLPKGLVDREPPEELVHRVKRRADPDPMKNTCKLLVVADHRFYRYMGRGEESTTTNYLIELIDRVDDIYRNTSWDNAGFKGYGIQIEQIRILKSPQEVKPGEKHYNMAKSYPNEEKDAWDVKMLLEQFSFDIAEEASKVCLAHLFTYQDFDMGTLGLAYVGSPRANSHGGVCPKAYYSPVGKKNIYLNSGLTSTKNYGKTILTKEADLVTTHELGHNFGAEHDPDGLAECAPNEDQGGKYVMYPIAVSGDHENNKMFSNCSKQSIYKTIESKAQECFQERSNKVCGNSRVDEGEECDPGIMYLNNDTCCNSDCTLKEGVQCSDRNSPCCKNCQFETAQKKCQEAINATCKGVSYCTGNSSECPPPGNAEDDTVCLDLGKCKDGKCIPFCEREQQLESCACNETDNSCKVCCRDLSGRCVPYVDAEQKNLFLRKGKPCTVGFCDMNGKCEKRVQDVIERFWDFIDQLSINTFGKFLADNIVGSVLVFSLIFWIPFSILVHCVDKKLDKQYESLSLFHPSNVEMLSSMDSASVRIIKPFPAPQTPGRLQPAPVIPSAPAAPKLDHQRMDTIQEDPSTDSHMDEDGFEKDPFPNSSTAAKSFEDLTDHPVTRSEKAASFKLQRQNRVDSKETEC
T1 sequence (Q9UNA0 262-930): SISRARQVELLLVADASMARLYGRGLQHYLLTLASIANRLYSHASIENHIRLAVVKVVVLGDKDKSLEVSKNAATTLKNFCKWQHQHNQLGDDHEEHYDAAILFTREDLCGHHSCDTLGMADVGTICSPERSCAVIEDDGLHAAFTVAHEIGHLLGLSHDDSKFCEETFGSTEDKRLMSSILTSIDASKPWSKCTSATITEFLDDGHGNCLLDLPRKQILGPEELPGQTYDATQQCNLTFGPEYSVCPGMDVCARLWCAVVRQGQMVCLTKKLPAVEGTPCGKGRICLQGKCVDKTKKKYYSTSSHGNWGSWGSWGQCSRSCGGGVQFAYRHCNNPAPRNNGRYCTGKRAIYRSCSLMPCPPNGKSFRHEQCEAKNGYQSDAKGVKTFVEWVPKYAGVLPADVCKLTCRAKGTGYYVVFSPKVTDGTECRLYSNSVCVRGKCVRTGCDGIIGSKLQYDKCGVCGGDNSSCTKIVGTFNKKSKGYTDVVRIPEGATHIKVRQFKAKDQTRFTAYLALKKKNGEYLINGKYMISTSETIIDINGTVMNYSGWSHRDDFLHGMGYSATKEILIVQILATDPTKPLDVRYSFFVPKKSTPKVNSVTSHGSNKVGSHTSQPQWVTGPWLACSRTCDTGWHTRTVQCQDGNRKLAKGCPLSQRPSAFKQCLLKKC

In the case of `CC(CC1(CCS(C)(=O)=O)NC(=O)NC1=O)C(=O)N1CCN(c2cc(Cl)cc(Cl)c2)CC1` (centres unmarked) [Cpd 218, 5-[3-[4-(3,5-dichlorophenyl)piperazin-1-yl]-2-methyl-3-oxo-propyl]-5-(2-methylsulfonylethyl)imidazolidine-2,4-dione], the IC50 on rnADAMTS-5 (1-564-6H) came out at 17 nM; at human ADAMTS-5 [1], 20 nM; at human TACE it was 272 nM; on human MMP13 [2], 2220 nM; on human MMP14, 1310 nM.
Regarding `CC1(CCC(=O)N2CCN(c3ccccc3)CC2)NC(=O)NC1=O` (centres unmarked) [compound 1, 5-methyl-5-[3-oxo-3-(4-phenylpiperazin-1-yl)propyl]imidazolidine-2,4-dione], the IC50 is 730 nM on rnADAMTS-5 (1-564-6H), over 20000 nM at human TACE and over 20000 nM on human MMP13 [3].
`CC1(CCC(=O)N2CCN(c3ccc(Cl)cc3)CC2)NC(=O)NC1=O` (centres unmarked) [compound 2, 5-[3-[4-(4-chlorophenyl)piperazin-1-yl]-3-oxo-propyl]-5-methyl-imidazolidine-2,4-dione]: the IC50 was 361 nM at rnADAMTS-5 (1-564-6H), 274 nM on human ADAMTS-5 [4], over 17500 nM at human TACE and 2370 nM at human MMP13 [3].
As to `O=C1NC(=O)C(CCC(=O)N2CCN(c3cccc(Cl)c3)CC2)(c2ccccc2)N1` (centres unmarked) [compound 6, 5-[3-[4-(3-chlorophenyl)piperazin-1-yl]-3-oxo-propyl]-5-phenyl-imidazolidine-2,4-dione], the IC50 at rnADAMTS-5 (1-564-6H) amounted to 107 nM; at human TACE, 2360 nM; at human MMP13 [3] it was 2150 nM.
For `Cc1ccccc1N1CCN(C(=O)CCC2(C)NC(=O)NC2=O)CC1` (centres unmarked) [compound 12, 5-methyl-5-[3-[4-(o-tolyl)piperazin-1-yl]-3-oxo-propyl]imidazolidine-2,4-dione], the IC50 is 1160 nM at rnADAMTS-5 (1-564-6H), over 4000 nM at human TACE and over 20000 nM at human MMP13 [3].
On to `Cc1ccccc1N1CCN(C(=O)CC[C@@]2(c3ccccc3)NC(=O)NC2=O)CC1` [compound 27, (5S)-5-[3-[4-(o-tolyl)piperazin-1-yl]-3-oxo-propyl]-5-phenyl-imidazolidine-2,4-dione], for which the IC50 was 124 nM at rnADAMTS-5 (1-564-6H); 90 nM on human ADAMTS-5 [4]; over 2000 nM at human TACE; over 20000 nM at human MMP13 [2]; over 20000 nM at human MMP14.
Consider `Cc1ccc(Cl)cc1N1CCN(C(=O)CCC2(C3CC3)NC(=O)NC2=O)CC1` (centres unmarked) [compound 36, 5-[3-[4-(5-chloro-2-methyl-phenyl)piperazin-1-yl]-3-oxo-propyl]-5-cyclopropyl-imidazolidine-2,4-dione], for which the IC50 on rnADAMTS-5 (1-564-6H) was 29 nM; at human ADAMTS-5 [4], 34 nM; at human TACE, 670 nM; on human MMP13 [2] it was over 20000 nM; at human MMP14 it was over 20000 nM.
Turning to `CC1(CCC(=O)N2CCN(c3cc(Cl)cc(Cl)c3)CC2)NC(=O)NC1=O` (centres unmarked) [compound 40, 5-[3-[4-(3,5-dichlorophenyl)piperazin-1-yl]-3-oxo-propyl]-5-methyl-imidazolidine-2,4-dione], the IC50 is 234 nM at rnADAMTS-5 (1-564-6H), 2720 nM on human TACE, over 20000 nM on human MMP13 [2] and over 20000 nM at human MMP14.
Take `O=C1NC(=O)C(CCC(=O)N2CCN(c3cc(Cl)cc(Cl)c3)CC2)(C2CC2)N1` (centres unmarked) [compound 55, 5-cyclopropyl-5-[3-[4-(3,5-dichlorophenyl)piperazin-1-yl]-3-oxo-propyl]imidazolidine-2,4-dione]: the IC50 was 37 nM on rnADAMTS-5 (1-564-6H), over 3310 nM on human TACE, over 20000 nM on human MMP13 [2] and over 20000 nM at human MMP14.
In the case of `O=C1NC(=O)[C@](CCC(=O)N2CCN(c3cc(Cl)cc(Cl)c3)CC2)(C2CC2)N1` [compound 173, (5S)-5-cyclopropyl-5-[3-[4-(3,5-dichlorophenyl)piperazin-1-yl]-3-oxo-propyl]imidazolidine-2,4-dione], the IC50 on rnADAMTS-5 (1-564-6H) is 21 nM; at human ADAMTS-5 [1] it was 22 nM; on human TACE it was 3140 nM; on human MMP13 [2], over 20000 nM; on human MMP14, over 20000 nM.
On to `C[C@H]1CN(C(=O)CC[C@@]2(C3CC3)NC(=O)NC2=O)CCN1c1cccc(F)c1` [compound 203, (5S)-5-cyclopropyl-5-[3-[(3S)-4-(3-fluorophenyl)-3-methyl-piperazin-1-yl]-3-oxo-propyl]imidazolidine-2,4-dione], for which the half-inhibitory concentration (IC50) at rnADAMTS-5 (1-564-6H) is 26 nM; at human ADAMTS-5 [1] it was 46 nM; at human TACE it was over 20000 nM; at human MMP13 [2], over 20000 nM; at human MMP14 it was over 4000 nM.
As to `C[C@H]1CN(C(=O)CC[C@@]2(C3CC3)NC(=O)NC2=O)CCN1c1cc(Cl)cc(Cl)c1` [compound 204, (5S)-5-cyclopropyl-5-[3-[(3S)-4-(3,5-dichlorophenyl)-3-methyl-piperazin-1-yl]-3-oxo-propyl]imidazolidine-2,4-dione], the IC50 at rnADAMTS-5 (1-564-6H) is 11 nM; on human ADAMTS-5 [1] it was 16 nM; at human TACE, 3870 nM; on human MMP13 [2], over 12000 nM; on human MMP14, over 20000 nM.
For the compound `C[C@H]1CN(C(=O)CC[C@@]2(C3CC3)NC(=O)NC2=O)CCN1c1ccc(F)c(F)c1` [compound 205, (5S)-5-cyclopropyl-5-[3-[(3S)-4-(3,4-difluorophenyl)-3-methyl-piperazin-1-yl]-3-oxo-propyl]imidazolidine-2,4-dione], the IC50 at rnADAMTS-5 (1-564-6H) was 27 nM; at human ADAMTS-5 [1] it was 26 nM; on human TACE, over 20000 nM; on human MMP13 [2] it was over 20000 nM; at human MMP14, over 4000 nM.
Turning to `CC(CC1(CCN)NC(=O)NC1=O)C(=O)N1CCN(c2cc(Cl)cc(Cl)c2)CC1` (centres unmarked) [compound 210, 5-(2-aminoethyl)-5-[3-[4-(3,5-dichlorophenyl)piperazin-1-yl]-2-methyl-3-oxo-propyl]imidazolidine-2,4-dione], the IC50 on rnADAMTS-5 (1-564-6H) was 105 nM; on human ADAMTS-5 [1], 108 nM; on human TACE, 1440 nM; at human MMP13 [2], over 14700 nM; at human MMP14, over 20000 nM.
As to `CC(CC1(C)NC(=O)NC1=O)C(=O)N1CCN(c2cccc(Cl)c2)[C@@H](C)C1` (stereo partly drawn) [compound 214, 5-[3-[(3S)-4-(3-chlorophenyl)-3-methyl-piperazin-1-yl]-2-methyl-3-oxo-propyl]-5-methyl-imidazolidine-2,4-dione], the IC50 was 30 nM on rnADAMTS-5 (1-564-6H); 61 nM on human ADAMTS-5 [1]; over 4000 nM at human TACE; over 3510 nM at human MMP13 [2]; 1230 nM on human MMP14.
With `CC(CC1(C)NC(=O)NC1=O)C(=O)N1CCN(c2cccc(F)c2)[C@@H](C)C1` (stereo partly drawn) [compound 215, 5-[3-[(3S)-4-(3-fluorophenyl)-3-methyl-piperazin-1-yl]-2-methyl-3-oxo-propyl]-5-methyl-imidazolidine-2,4-dione], the IC50 at rnADAMTS-5 (1-564-6H) was 18 nM; on human ADAMTS-5 [1] it was 37 nM; at human TACE, over 12000 nM; on human MMP13 [2] it was over 4000 nM; on human MMP14, 2600 nM.
Turning to `CC(CC1(C)NC(=O)NC1=O)C(=O)N1CCN(c2ccccc2)[C@@H](C)C1` (stereo partly drawn) [compound 217, 5-methyl-5-[2-methyl-3-[(3S)-3-methyl-4-phenyl-piperazin-1-yl]-3-oxo-propyl]imidazolidine-2,4-dione], the IC50 at rnADAMTS-5 (1-564-6H) was 49 nM; on human ADAMTS-5 [1], 59 nM; on human TACE it was over 4000 nM; on human MMP13 [2] it was over 4000 nM; on human MMP14 it was over 4000 nM.
In the case of `CC(CC1(CN2CCOCC2)NC(=O)NC1=O)C(=O)N1CCN(c2cc(Cl)cc(Cl)c2)CC1` (centres unmarked) [compound 242, 5-[3-[4-(3,5-dichlorophenyl)piperazin-1-yl]-2-methyl-3-oxo-propyl]-5-(morpholinomethyl)imidazolidine-2,4-dione], the IC50 was 57 nM on rnADAMTS-5 (1-564-6H); 66 nM on human ADAMTS-5 [1]; 2520 nM on human TACE; over 20000 nM at human MMP13 [2]; over 20000 nM at human MMP14.
For `CC(=O)N1CC(C2(CC(C)C(=O)N3CCN(c4ccc(F)c(F)c4)[C@@H](C)C3)NC(=O)NC2=O)C1` (stereo partly drawn) [compound 249, 5-(1-acetylazetidin-3-yl)-5-[3-[(3S)-4-(3,4-difluorophenyl)-3-methyl-piperazin-1-yl]-2-methyl-3-oxo-propyl]imidazolidine-2,4-dione], the IC50 was 34 nM at rnADAMTS-5 (1-564-6H); 36 nM at human ADAMTS-5 [1]; over 19600 nM at human TACE; over 4000 nM at human MMP13 [2]; 1230 nM on human MMP14.
As for `COC(CC1(C)NC(=O)NC1=O)C(=O)N1CCN(c2cc(F)cc(Cl)c2)[C@@H](C)C1` (stereo partly drawn) [compound 295, 5-[3-[(3S)-4-(3-chloro-5-fluoro-phenyl)-3-methyl-piperazin-1-yl]-2-methoxy-3-oxo-propyl]-5-methyl-imidazolidine-2,4-dione], the IC50 was 71 nM at rnADAMTS-5 (1-564-6H), 115 nM on human ADAMTS-5 [1], over 20000 nM on human TACE and 3460 nM at human MMP14.
Consider `CC(CC1(C2CC2)NC(=O)NC1=O)C(=O)N1CCN(c2cncc(Cl)c2)[C@@H](C)C1` (stereo partly drawn) [compound 314, 5-[3-[(3S)-4-(5-chloro-3-pyridyl)-3-methyl-piperazin-1-yl]-2-methyl-3-oxo-propyl]-5-cyclopropyl-imidazolidine-2,4-dione], for which the IC50 was 34 nM at rnADAMTS-5 (1-564-6H), 24 nM at human ADAMTS-5 [1], over 4000 nM on human TACE and over 20000 nM on human MMP14.
As for `C[C@H]1CN(C(=O)CCC2(c3cocn3)NC(=O)NC2=O)CCN1c1cc(F)cc(Cl)c1` (stereo partly drawn) [compound 388, 5-[3-[(3S)-4-(3-chloro-5-fluoro-phenyl)-3-methyl-piperazin-1-yl]-3-oxo-propyl]-5-oxazol-4-yl-imidazolidine-2,4-dione], the IC50 was 74 nM at rnADAMTS-5 (1-564-6H), 57 nM on human ADAMTS-5 [1], over 4000 nM on human TACE and 549 nM on human MMP14.
